Experiment [1] deals with Recombinant human JAK1 catalytic domain (Homo sapiens (Human), UniProt P23458). Briefly: JAK1 inhibition assay. In kind it is biochemical. As to conditions: semi-quantitative score. In a few lines:
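IC50 values come from dose-response series, with each point expressed as percent inhibition of cpm. Vehicle sets full activity and 10 μM staurosporine sets background. Incorporated radioactivity counted by scintillation after washing with 75 mM phosphoric acid.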

The target of experiment [2] is Recombinant human JAK2 catalytic domain (Homo sapiens (Human), UniProt O60674). Briefly: JAK2 inhibition assay. In kind it is biochemical. The settings on record: semi-quantitative score. How it is done: After 90 min at 30° C., reactions were stopped by adding of 25 μL/well of 150 mM phosphoric acid. […] Plates were washed 6 times with 300 μL per well of a 75 mM phosphoric acid solution and the bottom of the plates was sealed. 40 μL/well of Microscint-20 was added, the top of the plates was sealed and readout was performed using the Topcount (Perkin Elmer). Kinase activity was calculated by subtracting counts per minute (cpm) obtained in the presence of a positive control inhibitor (10 μM staurosporine) from cpm obtained in the presence of vehicle. The ability of a test compound to inhibit this activity was determined as: Percentage inhibition=((cpm determined for sample with test compound present−cpm determined for sample with positive control inhibitor) divided by (cpm determined in the presence of vehicle−cpm determined for sample with positive control inhibitor))*100%.
Dose dilution series were prepared for the compounds enabling the testing of dose-response effects in the JAK2 assay and the calculation of the IC50 for each compound.

In experiment [3] the test system is JAK-STAT signalling in HeLa cells. Briefly: JAK-STAT signalling assay (OSM-triggered pSTAT1(2)-luciferase reporter in HeLa cells). Type of experiment: cell-based. As to conditions: Homo sapiens; HeLa cells, OSM-triggered pSTAT1(2)-luciferase reporter; read-out: STAT signalling EC50. As for the experimental part: HeLa cells were maintained in Dulbecco's Modified Eagle's Medium (DMEM) containing 10% heat inactivated fetal calf serum, 100 U/mL penicillin and 100 μg/mL streptomycin. HeLa cells were used at 70% confluence for transfection. 20,000 cells in 87 μL cell culture medium were transiently transfected with 40 ng pSTAT1(2)-luciferase reporter (Panomics), 8 ng of LacZ reporter as internal control reporter and 52 ng of pBSK using 0.32 μL Jet-PEI (Polyplus) as transfection reagent per well in 96-well plate format. After overnight incubation at 37° C., 10% CO2, transfection medium was removed.
40 μL of cell lysate was used to read β-galactosidase activity by adding 180 μL βGal solution (30 μl ONPG 4 mg/mL+150 μL β-Galactosidase buffer (0.06 M Na2HPO4, 0.04 M NaH2PO4, 1 mM MgCl2)) for 20 min.
Luciferase activity was measured using 40 μL cell lysate plus 40 μl of Steadylite® as described by the manufacturer (Perkin Elmer), on the Envision (Perkin Elmer).
The positive and negative controls were used to calculate z’ and ‘percent inhibition’ (PIN) values.
PIN values were plotted for compounds tested in dose-response and EC50 values were derived.
(In general: A reporter such as luciferase makes a cellular process visible.)

Chain of Recombinant human JAK2 catalytic domain (O60674 808-1132): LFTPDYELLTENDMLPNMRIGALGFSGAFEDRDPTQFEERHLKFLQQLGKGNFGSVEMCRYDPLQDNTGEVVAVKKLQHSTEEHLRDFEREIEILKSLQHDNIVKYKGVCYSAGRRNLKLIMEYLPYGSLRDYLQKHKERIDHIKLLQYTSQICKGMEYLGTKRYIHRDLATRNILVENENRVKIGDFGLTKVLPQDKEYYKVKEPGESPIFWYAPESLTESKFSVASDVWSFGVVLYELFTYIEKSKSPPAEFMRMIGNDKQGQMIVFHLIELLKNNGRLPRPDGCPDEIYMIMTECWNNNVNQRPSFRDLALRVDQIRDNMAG
Chain of Recombinant human JAK1 catalytic domain (P23458 850-1154): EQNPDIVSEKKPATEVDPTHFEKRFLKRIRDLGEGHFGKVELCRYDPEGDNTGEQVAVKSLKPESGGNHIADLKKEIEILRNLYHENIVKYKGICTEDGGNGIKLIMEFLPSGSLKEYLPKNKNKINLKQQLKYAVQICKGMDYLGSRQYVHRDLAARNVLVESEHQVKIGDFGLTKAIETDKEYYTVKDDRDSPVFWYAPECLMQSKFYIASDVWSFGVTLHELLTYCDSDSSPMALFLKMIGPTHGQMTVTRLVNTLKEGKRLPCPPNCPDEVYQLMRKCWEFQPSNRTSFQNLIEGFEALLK

In general, IC50 refers to the point on the concentration scale where inhibition reaches its midpoint. What is called EC50 is the concentration giving half of the maximal effect. With `COC1CCN(C(=O)c2ccc(-c3cccc4nc(NC(=O)C5CC5)nn34)cc2)CC1` [Compound 293, Cyclopropanecarboxylic acid {5-[4-(4-methoxy-piperidine-1-carbonyl)-phenyl]-[1,2,4]triazolo[1,5-a]pyridin-2-yl}-amide], the results for the IC50 in experiment [1] and in experiment [2] were below 100 nM and above 1000 nM, respectively. In addition, in experiment [3], the EC50 was above 1000 nM.

Take `O=C1CN(C(=O)c2ccc(-c3cccc4nc(NC(=O)C5CC5)nn34)cc2)CCN1` [Compound 277, Cyclopropanecarboxylic acid [5-[4-(3-oxo-piperazine-1-carbonyl)-phenyl]-[1,2,4]triazolo[1,5-a]pyridin-2-yl}-amide]: the half-maximal inhibitory concentration (IC50) in experiment [1] is below 100 nM; in experiment [2], 101 to 500 nM. Besides, the EC50 in experiment [3] is above 1000 nM.

Turning to `N#CC1CCN(Cc2ccc(-c3cccc4nc(NC(=O)C5CC5)nn34)cc2)CC1` [Compound 232, Cyclopropanecarboxylic acid {5-[4-(4-cyano-piperidin-1-ylmethyl)-phenyl]-[1,2,4]triazolo[1,5-a]pyridin-2-yl}-amide], the IC50 in experiment [1] is below 100 nM; in experiment [2], 101 to 500 nM. Moreover, in experiment [3], the EC50 was above 1000 nM.

As for `O=C(Nc1nc2cccc(-c3ccc(C(=O)N4CC(N5CCOCC5)C4)cc3)n2n1)C1CC1` [Compound 326, Cyclopropanecarboxylic acid {5-[4-(3-morpholin-4-yl-azetidine-1-carbonyl)-phenyl]-[1,2,4]triazolo[1,5-a]pyridin-2-yl}-amide], the IC50 in experiment [1] is 101 to 500 nM; in experiment [2] it was above 1000 nM. Further, the EC50 in experiment [3] was above 1000 nM.

As for `N#CC1CN(c2ccc(-c3cccc4nc(NC(=O)C5CC5)nn34)cc2)C1` [Compound 288, Cyclopropanecarboxylic acid {5-[4-(3-cyano-azetidin-1-yl)-phenyl]-[1,2,4]triazolo[1,5-a]pyridin-2-yl}-amide], the IC50 in experiment [1] was below 100 nM; in experiment [2] it was 101 to 500 nM. For the same compound, the EC50 in experiment [3] was above 1000 nM.

Turning to `O=C(NCc1ccc(-c2cccc3nc(NC(=O)C4CC4)nn23)cc1)C1CC1` [Compound 272, Cyclopropanecarboxylic acid 4-[2-(cyclopropanecarbonyl-amino)-[1,2,4]triazolo[1,5-a]pyridin-5-yl]-benzylamide], the figures for the IC50 in experiment [1] and in experiment [2] were below 100 nM and 101 to 500 nM, respectively. Besides, the EC50 in experiment [3] is above 1000 nM.

`N#Cc1ccc(-c2ccc(-c3cccc4nc(NC(=O)C5CC5)nn34)cc2)cn1` [Compound 239, Cyclopropanecarboxylic Acid {5-[4-(6-cyano-pyridin-3-yl)-phenyl]-[1,2,4]triazolo[1,5-a]pyridin-2-yl}-amide]: the IC50 in experiment [1] was below 100 nM; in experiment [2], 101 to 500 nM. The EC50 in experiment [3] was above 1000 nM.

As to `N#Cc1ccc(OC2CN(Cc3ccc(-c4cccc5nc(NC(=O)C6CC6)nn45)cc3)C2)cc1` [Compound 278, Cyclopropanecarboxylic acid (5-{4-[3-(4-cyano-phenoxy)-azetidin-1-ylmethyl]-phenyl}-[1,2,4]triazolo[1,5-a]pyridin-2-yl)-amide], the results for the IC50 in experiment [1] and in experiment [2] were below 100 nM and 101 to 500 nM, respectively. The EC50 in experiment [3] was above 1000 nM.

Consider `O=C(Nc1nc2cccc(-c3ccc(CN4CCCC(O)C4)cc3)n2n1)C1CC1` (stereo not drawn) [Compound 313, Cyclopropanecarboxylic acid {5-[4-(3-hydroxy-piperidin-1-ylmethyl)-phenyl]-[1,2,4]triazolo[1,5-a]pyridin-2-yl}-amide], for which the IC50 in experiment [1] was below 100 nM; in experiment [2] it was 101 to 500 nM. In addition, the EC50 in experiment [3] is above 1000 nM.

With `O=C(NCc1ccc(-c2cccc3nc(NC(=O)C4CC4)nn23)cc1)C1CCC1` [Compound 268, Cyclobutanecarboxylic acid 4-[2-(cyclopropanecarbonyl-amino)-[1,2,4]triazolo[1,5-a]pyridin-5-yl]-benzylamide], the IC50 in experiment [1] was below 100 nM. Besides, the EC50 in experiment [3] was above 1000 nM.

With `Cc1ccc(C(N)=O)cc1NCc1ccc(-c2cccc3nc(NC(=O)C4CC4)nn23)cc1` [Compound 249], in experiment [1], the IC50 was below 100 nM. The EC50 in experiment [3] is above 1000 nM.

For the compound `O=C(Nc1nc2cccc(-c3cccc(OCc4ccccc4)c3)n2n1)C1CC1` [Compound 14, N-(5-(3-(benzyloxy)phenyl)-[1,2,4]triazolo[1,5-a]pyridin-2-yl)cyclopropanecarboxamide], the values for the concentration for half-maximal inhibition (IC50) in experiment [1] and in experiment [2] were 101 to 500 nM and 501 to 1000 nM, respectively. Further, the concentration for a half-maximal effect (EC50) in experiment [3] was above 1000 nM.

On to `CC(C)(C)OC(=O)NC1CCN(Cc2ccc(-c3cccc4nc(NC(=O)C5CC5)nn34)cc2)CC1` [Compound 310], for which the IC50 was below 100 nM in experiment [1] and above 1000 nM in experiment [2]. Also, the EC50 in experiment [3] was above 1000 nM.

For `CN1CCN(c2ccc(NCc3ccc(-c4cccc5nc(NC(=O)C6CC6)nn45)cc3)cn2)CC1` [Compound 235, Cyclopropanecarboxylic acid [5-(4-{[6-(4-methyl-piperazin-1-yl)-pyridin-3-ylamino]-methyl}-phenyl)-[1,2,4]triazolo[1,5-a]pyridin-2-yl]-amide], the IC50 in experiment [1] is below 100 nM; in experiment [2] it was 101 to 500 nM. Also, the EC50 in experiment [3] was above 1000 nM.

`CN(C)CC1CN(C(=O)c2ccc(-c3cccc4nc(NC(=O)C5CC5)nn34)cc2)C1` [Compound 329, Cyclopropanecarboxylic acid {5-[4-(3-dimethylaminomethyl-azetidine-1-carbonyl)-phenyl]-[1,2,4]triazolo[1,5-a]pyridin-2-yl}-amide]: the IC50 in experiment [1] was 101 to 500 nM; in experiment [2] it was above 1000 nM. Further, the EC50 in experiment [3] is above 1000 nM.

As to `COC1CN(C(=O)Cc2ccc(-c3cccc4nc(NC(=O)C5CC5)nn34)cc2)C1` [Compound 321, Cyclopropanecarboxylic acid (5-{4-[2-(3-methoxy-azetidin-1-yl)-2-oxo-ethyl]-phenyl} - [1,2,4]triazolo[1,5-a]pyridin-2 yl)-amide], the IC50 in experiment [1] was below 100 nM. Also, the EC50 in experiment [3] was above 1000 nM.

`CN(C)C1CN(C(=O)c2ccc(-c3cccc4nc(NC(=O)C5CC5)nn34)cc2)C1` [Compound 327, Cyclopropanecarboxylic acid {5-[4-(3-dimethylamino-azetidine-1-carbonyl)-phenyl]-[1,2,4]triazolo[1,5-a]pyridin-2-yl}-amide]: the IC50 in experiment [1] was 101 to 500 nM; in experiment [2], above 1000 nM. Further, the concentration giving a half-maximal response (EC50) in experiment [3] was above 1000 nM.

Turning to `O=C(Nc1nc2cccc(-c3ccc(-c4cccs4)cc3)n2n1)C1CC1` [Compound 20, N-(5-(4-(thiophen-2-yl)phenyl)-[1,2,4]triazolo[1,5-a]pyridin-2-yl)cyclopropanecarboxamide], the results for the IC50 in experiment [1] and in experiment [2] were 101 to 500 nM and 501 to 1000 nM, respectively. Further, the EC50 in experiment [3] was 501 to 1000 nM.

For the compound `CN(C)C1CCCN(C(=O)c2ccc(-c3cccc4nc(NC(=O)C5CC5)nn34)cc2)C1` (stereo not drawn) [Compound 269, Cyclopropanecarboxylic acid {5-[4-(3-dimethylamino-piperidine-1-carbonyl)-phenyl]-[1,2,4]triazolo[1,5-a]pyridin-2-yl}-amide], the IC50 in experiment [1] is 101 to 500 nM; in experiment [2], above 1000 nM. Moreover, the half-maximal effective concentration (EC50) in experiment [3] was above 1000 nM.

Turning to `CN(C)CC1CN(Cc2ccc(-c3cccc4nc(NC(=O)C5CC5)nn34)cc2)C1` [Compound 298, Cyclopropanecarboxylic acid {5-[4-(3-dimethylaminomethyl-azetidin-1-ylmethyl)-phenyl]-[1,2,4]triazolo[1,5-a]pyridin-2-yl}-amide], the IC50 in experiment [1] and in experiment [2] was above 1000 nM each time.

With `O=C(Nc1nc2cccc(-c3ccc(C(=O)N4CCCC(C(=O)N5CCCCC5)C4)cc3)n2n1)C1CC1` (stereo not drawn) [Compound 290, Cyclopropanecarboxylic acid (5-{4-[3-(piperidine-1-carbonyl)-piperidine-1-carbonyl]-phenyl}-[1,2,4]triazolo[1,5-a]pyridin-2-yl)-amide], the IC50 was 101 to 500 nM in experiment [1] and above 1000 nM in experiment [2].

Regarding `CC1(C)COCCN1C(=O)c1ccc(-c2cccc3nc(NC(=O)C4CC4)nn23)cc1` [Compound 216, Cyclopropanecarboxylic acid {5-[4-(3,3-dimethyl-morpholine-4-carbonyl)-phenyl]-[1,2,4]triazolo[1,5-a]pyridin-2-yl}-amide], the concentration for half-maximal inhibition (IC50) in experiment [1] and in experiment [2] was 101 to 500 nM in each case.

(Values after US10206907B2, “Compounds useful for the treatment of degenerative and inflammatory diseases” (GALAPAGOS NV, priority 2008, dated 2019).)
